Reference: publication PMC10818749, “Toxicity Studies of Cardiac-Targeting Peptide Reveal a Robust Safety Profile” (Pharmaceutics, 2024)
Ends that are not written are not given here.

Experiments:
CAV1.2 = CAV1.2 (Homo sapiens, UniProt Q13936); test: in vitro; format: cell-based; settings: blocker; FLIPR Tetra; up to 30 µM; read-out: RC50 (the source's name)
Description: Ion Channel Assays: Cell lines were grown, plated, and loaded with 1× loading buffer containing 1× dye and 2.5 mM freshly prepared probenecid. Assays were performed, and activity was measured using a FLIPR Tetra. Percent of activation and percent of inhibition were calculated to determine agonist and antagonist activity, respectively. […]
The KINOMEscan screening platform employs a novel and propri- Membrane Potential Assay etary active site-directed competition binding assay to quantitatively The FLIPR® Membrane Potential Assay Kit is used which utilizes a pro-measure interactions between test compounds and the kinases. prietary fluorescent indicator dye in combination with a quencher to This robust and reliable assay technology affords investigators the reflect real-time membrane potential changes associated with ion ability to extensively annotate compounds with accurate, precise channel activation and ion transporter proteins. […]
Compounds that bind the kinase active site and directly (sterically) be monitored within a single experiment. […]
a quantitative, precise and ultra-sensitive qPCR method that detects the receptor signals release of intracellular calcium, which results in the associated DNA label (D). In a similar manner, dissociation con- an increase of dye fluorescence. […]
Neurotransmitter Transporter Uptake Assay spectrophotometric, fluorometric, and luminescent readouts. […]

ADRB1 = biological target: T1, ADRB1 (Homo sapiens, UniProt P08588); test: ADRB1 GPCR cAMP modulation assay; format: cell-based; settings: compared to the controls
T1 construct: host or cells: cAMP Hunter cell line
T1 sequence (P08588 whole entry): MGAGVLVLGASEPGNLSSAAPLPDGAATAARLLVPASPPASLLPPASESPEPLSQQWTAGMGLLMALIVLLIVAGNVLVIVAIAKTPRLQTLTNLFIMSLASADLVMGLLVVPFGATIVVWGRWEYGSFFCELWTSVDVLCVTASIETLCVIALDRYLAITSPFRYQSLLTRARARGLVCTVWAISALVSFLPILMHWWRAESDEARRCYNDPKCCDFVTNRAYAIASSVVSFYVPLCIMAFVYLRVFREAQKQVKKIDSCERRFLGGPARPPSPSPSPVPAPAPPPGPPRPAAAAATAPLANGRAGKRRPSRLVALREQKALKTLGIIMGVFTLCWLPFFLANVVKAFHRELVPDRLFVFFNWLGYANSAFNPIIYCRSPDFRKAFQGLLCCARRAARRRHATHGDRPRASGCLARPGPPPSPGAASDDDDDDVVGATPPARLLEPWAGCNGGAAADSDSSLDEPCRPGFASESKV
Description: GPCR cAMP Modulation Assays: cAMP Hunter cell lines were grown, plated, and subjected to Eurofins’ DiscoverX HitHunter cAMP XS+ assay. Gs agonist activity, Gi agonist activity, and antagonist activity-induced assays were read using chemiluminescent signal detection. The percentage of activity was calculated for Gs and Gi agonist assays, and the percentage of inhibition was calculated for Gs antagonist assays. […]
cAMP Second ary Messenger Assay pound results in the release of calcium from intracellular stores and DiscoverX has developed a panel of cell lines stably expressing non- an increase in dye fluorescence that is measured in real-time. tagged GPCRs that endogenously signal through cAMP. […]
The enzyme is split into two complementary portions: Enzyme Ac-ceptor (EA) and Enzyme Donor (ED). […] Active enzyme can then convert a chemilumines-cent substrate, generating an output signal detectable on a standard The NHR is tagged with the ProLink™ (PK) component of our EFC microplate reader. assay system, and the SRCP domain is fused to the Enzyme Ac-ceptor component (EA) expressed in the nucleus. […]

Sequence of CAV1.2 (Q13936 whole entry): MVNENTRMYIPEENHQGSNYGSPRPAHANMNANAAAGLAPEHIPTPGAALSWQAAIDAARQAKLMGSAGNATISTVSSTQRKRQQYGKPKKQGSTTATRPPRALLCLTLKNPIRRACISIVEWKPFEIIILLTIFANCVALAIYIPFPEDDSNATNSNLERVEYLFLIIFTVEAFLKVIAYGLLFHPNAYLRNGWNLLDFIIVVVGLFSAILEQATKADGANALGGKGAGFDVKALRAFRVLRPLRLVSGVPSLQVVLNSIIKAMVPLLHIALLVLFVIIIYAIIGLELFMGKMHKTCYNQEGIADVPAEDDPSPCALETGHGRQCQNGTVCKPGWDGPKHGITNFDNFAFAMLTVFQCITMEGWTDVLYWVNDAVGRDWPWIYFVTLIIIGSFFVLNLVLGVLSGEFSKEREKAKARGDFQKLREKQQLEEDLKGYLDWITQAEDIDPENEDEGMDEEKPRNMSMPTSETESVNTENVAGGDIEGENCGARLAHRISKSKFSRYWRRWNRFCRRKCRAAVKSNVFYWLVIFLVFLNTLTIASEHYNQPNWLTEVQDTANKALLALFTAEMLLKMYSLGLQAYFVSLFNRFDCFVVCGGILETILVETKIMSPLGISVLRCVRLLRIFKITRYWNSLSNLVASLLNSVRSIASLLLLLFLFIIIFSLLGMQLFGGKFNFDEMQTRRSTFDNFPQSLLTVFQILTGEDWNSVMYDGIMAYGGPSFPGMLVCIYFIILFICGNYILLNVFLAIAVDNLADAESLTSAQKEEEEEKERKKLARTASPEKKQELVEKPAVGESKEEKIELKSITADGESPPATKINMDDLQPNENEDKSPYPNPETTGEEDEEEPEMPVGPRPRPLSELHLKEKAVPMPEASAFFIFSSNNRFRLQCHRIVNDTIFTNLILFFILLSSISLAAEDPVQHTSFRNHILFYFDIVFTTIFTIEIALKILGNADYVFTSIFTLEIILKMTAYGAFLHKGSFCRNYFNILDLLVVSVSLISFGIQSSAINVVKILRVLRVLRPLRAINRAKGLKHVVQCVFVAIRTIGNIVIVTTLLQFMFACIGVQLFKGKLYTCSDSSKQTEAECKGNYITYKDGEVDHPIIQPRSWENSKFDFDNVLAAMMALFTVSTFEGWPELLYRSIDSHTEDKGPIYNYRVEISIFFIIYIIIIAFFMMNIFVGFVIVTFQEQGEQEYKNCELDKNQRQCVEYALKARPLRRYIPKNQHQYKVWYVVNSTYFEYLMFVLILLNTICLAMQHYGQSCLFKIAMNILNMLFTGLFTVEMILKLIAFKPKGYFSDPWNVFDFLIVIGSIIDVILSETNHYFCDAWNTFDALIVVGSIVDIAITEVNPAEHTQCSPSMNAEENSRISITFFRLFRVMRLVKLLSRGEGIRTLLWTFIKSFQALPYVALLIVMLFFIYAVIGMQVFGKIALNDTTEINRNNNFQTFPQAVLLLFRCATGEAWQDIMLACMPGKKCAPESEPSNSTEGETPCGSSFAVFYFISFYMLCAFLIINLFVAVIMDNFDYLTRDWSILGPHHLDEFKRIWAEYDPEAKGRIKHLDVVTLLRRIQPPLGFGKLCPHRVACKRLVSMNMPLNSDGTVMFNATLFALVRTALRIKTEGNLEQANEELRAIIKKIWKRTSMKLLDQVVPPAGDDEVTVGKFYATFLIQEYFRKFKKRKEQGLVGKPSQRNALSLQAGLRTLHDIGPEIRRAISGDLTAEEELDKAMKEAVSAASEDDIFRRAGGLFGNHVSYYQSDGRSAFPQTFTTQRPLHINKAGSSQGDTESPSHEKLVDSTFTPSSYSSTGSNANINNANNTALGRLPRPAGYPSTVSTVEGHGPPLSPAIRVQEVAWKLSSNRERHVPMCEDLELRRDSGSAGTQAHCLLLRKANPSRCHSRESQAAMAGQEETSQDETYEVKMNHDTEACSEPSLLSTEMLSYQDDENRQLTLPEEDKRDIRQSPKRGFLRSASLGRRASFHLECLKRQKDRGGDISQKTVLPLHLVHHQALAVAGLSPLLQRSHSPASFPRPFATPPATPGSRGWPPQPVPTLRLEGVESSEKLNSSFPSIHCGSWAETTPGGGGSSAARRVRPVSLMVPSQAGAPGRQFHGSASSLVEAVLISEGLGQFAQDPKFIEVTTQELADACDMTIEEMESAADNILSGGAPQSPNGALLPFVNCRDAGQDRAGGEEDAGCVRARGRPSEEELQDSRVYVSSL
Sequence of CAV1.2 (Q08289 whole entry partner): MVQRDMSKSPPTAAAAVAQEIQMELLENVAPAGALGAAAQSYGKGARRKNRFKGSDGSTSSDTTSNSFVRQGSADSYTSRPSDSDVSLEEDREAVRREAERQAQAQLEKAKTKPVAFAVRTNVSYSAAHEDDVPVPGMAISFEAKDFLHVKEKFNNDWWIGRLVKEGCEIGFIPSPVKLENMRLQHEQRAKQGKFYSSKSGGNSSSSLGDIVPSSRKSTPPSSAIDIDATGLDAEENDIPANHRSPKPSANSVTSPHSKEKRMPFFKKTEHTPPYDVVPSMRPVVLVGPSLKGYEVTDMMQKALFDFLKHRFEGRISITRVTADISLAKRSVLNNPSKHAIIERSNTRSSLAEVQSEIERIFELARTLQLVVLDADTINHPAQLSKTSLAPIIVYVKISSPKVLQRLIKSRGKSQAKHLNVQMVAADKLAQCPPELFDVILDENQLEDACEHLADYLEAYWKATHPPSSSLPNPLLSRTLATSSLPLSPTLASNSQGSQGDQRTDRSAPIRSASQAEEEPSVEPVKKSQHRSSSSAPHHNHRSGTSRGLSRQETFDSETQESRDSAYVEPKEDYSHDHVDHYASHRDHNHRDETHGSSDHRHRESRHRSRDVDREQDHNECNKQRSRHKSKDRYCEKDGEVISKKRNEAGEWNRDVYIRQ
Sequence of CAV1.2 (P54289 25-956 partner limits assumed): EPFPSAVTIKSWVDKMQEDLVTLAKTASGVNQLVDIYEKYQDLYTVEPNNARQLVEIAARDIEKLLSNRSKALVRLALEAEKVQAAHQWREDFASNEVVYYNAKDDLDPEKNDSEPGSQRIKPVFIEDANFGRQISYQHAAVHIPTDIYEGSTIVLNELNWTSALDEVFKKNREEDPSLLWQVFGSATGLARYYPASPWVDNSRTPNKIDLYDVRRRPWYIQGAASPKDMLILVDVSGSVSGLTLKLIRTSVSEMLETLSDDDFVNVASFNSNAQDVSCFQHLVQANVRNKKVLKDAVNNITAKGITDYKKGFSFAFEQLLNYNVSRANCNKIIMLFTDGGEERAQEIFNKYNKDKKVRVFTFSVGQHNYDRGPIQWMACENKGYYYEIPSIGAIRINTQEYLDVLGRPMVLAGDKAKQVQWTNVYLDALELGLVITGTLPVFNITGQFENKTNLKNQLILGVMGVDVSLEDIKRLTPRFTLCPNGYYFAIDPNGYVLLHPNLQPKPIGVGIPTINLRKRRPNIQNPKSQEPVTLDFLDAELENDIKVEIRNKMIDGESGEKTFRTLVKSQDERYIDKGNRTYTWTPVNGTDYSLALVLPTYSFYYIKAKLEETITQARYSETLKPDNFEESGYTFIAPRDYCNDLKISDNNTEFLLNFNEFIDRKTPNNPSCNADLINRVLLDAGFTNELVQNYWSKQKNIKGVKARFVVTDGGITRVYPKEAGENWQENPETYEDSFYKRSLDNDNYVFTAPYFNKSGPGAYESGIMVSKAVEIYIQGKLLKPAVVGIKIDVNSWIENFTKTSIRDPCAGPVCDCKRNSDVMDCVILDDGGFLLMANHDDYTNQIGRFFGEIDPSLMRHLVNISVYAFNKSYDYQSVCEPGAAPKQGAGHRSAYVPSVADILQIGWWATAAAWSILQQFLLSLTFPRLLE
Sequence of CAV1.2 (P54289 957-1103 partner limits assumed): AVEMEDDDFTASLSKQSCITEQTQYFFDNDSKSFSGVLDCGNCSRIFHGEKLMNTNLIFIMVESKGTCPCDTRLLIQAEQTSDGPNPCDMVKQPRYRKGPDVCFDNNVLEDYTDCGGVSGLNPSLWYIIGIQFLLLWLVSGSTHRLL

Sequence: APWHLSSQYSRT [CTP]
- IC50 (CAV1.2): > 30 µM
- agonist or antagonist action (ADRB1): no significant action as either an agonist or antagonist
